Changes are numbered by the printed parent chain.
What was measured:
[1] = biological target: T1, hVAChT F231A (Homo sapiens, UniProt Q16572, F231A); experiment: [3H]vesamicol saturation binding; conditions: pH 7.4
T1 sequence (Q16572 1-532 F231A): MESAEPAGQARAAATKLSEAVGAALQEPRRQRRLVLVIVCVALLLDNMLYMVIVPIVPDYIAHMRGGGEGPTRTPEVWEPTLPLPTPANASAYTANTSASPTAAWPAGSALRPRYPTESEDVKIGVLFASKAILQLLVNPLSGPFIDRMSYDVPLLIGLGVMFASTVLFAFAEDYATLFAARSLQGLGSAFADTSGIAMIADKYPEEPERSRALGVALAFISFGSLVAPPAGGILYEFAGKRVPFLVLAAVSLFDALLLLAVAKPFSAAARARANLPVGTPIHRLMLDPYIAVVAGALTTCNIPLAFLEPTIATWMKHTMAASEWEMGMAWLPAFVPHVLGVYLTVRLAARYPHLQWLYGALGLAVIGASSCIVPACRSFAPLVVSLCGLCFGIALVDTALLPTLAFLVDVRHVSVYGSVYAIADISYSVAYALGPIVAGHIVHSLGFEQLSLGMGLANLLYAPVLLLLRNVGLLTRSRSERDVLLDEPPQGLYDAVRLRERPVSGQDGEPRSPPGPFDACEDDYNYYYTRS

[2] = biological target: T2, hVAChT C391A (Homo sapiens, UniProt Q16572, C391A); experiment: [3H]vesamicol saturation binding; conditions: pH 7.4
T2 sequence (Q16572 1-532 C391A): T1 sequence (Q16572 1-532 F231A) with A231F, C391A

[3] = biological target: T3, hVAChT W325F (Homo sapiens, UniProt Q16572, W325F); experiment: ACh equilibrium binding by competition against [3H]vesamicol
T3 sequence (Q16572 1-532 W325F): T1 sequence (Q16572 1-532 F231A) with A231F, W325F

[4] = biological target: T2, hVAChT C391A; experiment: as above
[5] = biological target: T4, hVAChT W325H (Homo sapiens, UniProt Q16572, W325H); experiment: [3H]ACh transport; format: biochemical
T4 sequence (Q16572 1-532 W325H): T1 sequence (Q16572 1-532 F231A) with A231F, W325H

[6] = test system: VAChT C391Y; conditions: ref Zhu et al. (2001); cited from earlier work
[7] = biological target: T5, hVAChT A321F (Homo sapiens, UniProt Q16572, A321F); experiment: [3H]ACh transport; format: biochemical
T5 sequence (Q16572 1-532 A321F): T1 sequence (Q16572 1-532 F231A) with A231F, A321F

[8] = read-out: KM, Michaelis-Menten constant for ACh transport, pH 7.4

Row | Kd [3] [mM] | FHA, fraction of the ACh sites that have high affinity ([3]; W325F hVAChT, pH 7.4) | Kd [4] [mM] | FHA, fraction of the ACh sites that have high affinity ([4]; C391A hVAChT, pH 7.4) | Vmax/Bmax, ACh transport normalized to Bmax ([5]; pH 7.4) [min⁻¹] | Km [5, 8] [µM] | Vmax/Bmax, ACh transport normalized to Bmax ([7]; pH 7.4) [min⁻¹] | Km [7, 8] [µM] | SMILES | Bmax, maximal specific [3H]vesamicol binding (VAChT expression level) [1] [pmol/mg] | Bmax, maximal specific [3H]vesamicol binding (VAChT expression level) [2] [pmol/mg] | higher KM value for transport [6] [fold]
1 | – | – | – | – | – | – | – | – | O[C@@H]1CCCC[C@H]1N1CCC(c2ccccc2)CC1 (racemic) [vesamicol, ( )-trans-2-(4-phenylpiperidino)cyclohexanol] | 64 ± 4 | 34 ± 3 | –
2 | 7.3 ± 1.6 | 0.74 ± 0.09 | 10 ± 3 | 0.71 ± 0.07 | 6.5 ± 1.1 | 480 ± 170 | 6.0 ± 0.5 | 350 ± 100 | CC(=O)OCC[N+](C)(C)C [ACh, acetylcholine] | – | – | 2.6
